According to patent US10144738B2, “Pyrazolo[1,5-A]PYRAZIN-4-YL derivatives” (Pfizer Inc., priority 2016, dated 2018):

Tests used:
Format in all cases: biochemical
Conditions in all cases: recombinant human kinase domain, Caliper mobility shift
[1] = molecular target: TYK2 (Homo sapiens (Human), UniProt P29597); assay: JAK Caliper enzyme assay at 1 mM ATP (TYK2)
Method: (§1) Compounds of the invention were evaluated by in vitro methods to determine their respective ability to inhibit the JAK kinases (TYK2, JAK1, JAK2, JAK3).
(§2) The human JAK inhibitory activity was determined by using a microfluidic assay to monitor phosphorylation of a synthetic peptide by the recombinant human kinase domain of each of the four members of the JAK family, JAK1, JAK2, JAK3 and TYK2. […] Each assay condition was optimized for enzyme concentration and room temperature incubation time to obtain a conversion rate of 20% to 30% phosphorylated peptide product. Reactions were terminated by the addition of stop buffer containing EDTA. Utilizing the LabChip 3000 mobility shift technology (Caliper Life Science), each assay reaction was sampled to determine the level of phosphorylation. This technology is separation-based, allowing direct detection of fluorescently labeled substrates and products. Separations are controlled by a combination of vacuum pressure and electric field strength optimized for each peptide substrate.
(§3) JAK Caliper Enzyme Assay at 1 mM ATP
(§4) Compounds were added to a 384-well plate. Reaction mixtures contained 10 mM HEPES, pH 7.4, 10 mM MgCl2, 0.01% BSA, 0.0005% Tween 20, 1 mM ATP and 1 μM peptide substrate. […] The assays were initiated by the addition of 20 nM JAK1, 1 nM JAK2, 1 nM JAK or 1 nM TYK2 enzyme and were incubated at room temperature for three hours for JAK1, 60 minutes for JAK2, 75 minutes for JAK3 or 135 minutes for TYK2. Enzyme concentrations and incubation times were optimized for each new enzyme preps and were modified slightly over time to ensure 20% to 30% phosphorylation. The assays were stopped with 15 μL of 180 mM HEPES, pH 7.4, 20 mM EDTA, and 0.2% Coating Reagent 3. The assay plates were placed on a Caliper Life Science LC3000 instrument, and each well was sampled using appropriate separation conditions to measure the unphosphorylated and phosphorylated peptide.
(§5) The data was collected using the HTS Well Analyzer software from Caliper Life Sciences. The data output for data analysis is the percent product converted calculated on peak height (Equation 1). % product converted=100*((product)/(product+substrate)) Equation 1: […]
(§6) The percent effect at each compound concentration was calculated based on the positive and negative control well contained within each assay plate (Equation 2). […] The negative control wells contained DMSO alone (at the same concentration as the compound wells) that was used to set the baseline activity in the assay (i.e., uninhibited JAK1, JAK2, JAK3 or TYK2). % effect=100*((sample well−negative control)/(positive control-negative control)) Equation 2: The percent effect was plotted against the compound concentration compound.

[2] = molecular target: JAK1 (Homo sapiens (Human), UniProt P23458); assay: JAK Caliper enzyme assay at 1 mM ATP (JAK1)
Chain of JAK1 (P23458 875-1153): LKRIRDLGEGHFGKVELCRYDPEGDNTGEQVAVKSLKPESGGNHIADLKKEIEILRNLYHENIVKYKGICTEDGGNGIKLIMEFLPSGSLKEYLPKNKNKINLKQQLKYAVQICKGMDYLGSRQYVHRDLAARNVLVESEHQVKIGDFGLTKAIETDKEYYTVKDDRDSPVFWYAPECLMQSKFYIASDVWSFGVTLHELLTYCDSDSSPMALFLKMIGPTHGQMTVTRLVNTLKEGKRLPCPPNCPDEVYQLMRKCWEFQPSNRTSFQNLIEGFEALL
Method: Compounds of the invention were evaluated by in vitro methods to determine their respective ability to inhibit the JAK kinases (TYK2, JAK1, JAK2, JAK3). The human JAK inhibitory activity was determined by using a microfluidic assay to monitor phosphorylation of a synthetic peptide by the recombinant human kinase domain of each of the four members of the JAK family, JAK1, JAK2, JAK3 and TYK2. […] Reactions were terminated by the addition of stop buffer containing EDTA. Utilizing the LabChip 3000 mobility shift technology (Caliper Life Science), each assay reaction was sampled to determine the level of phosphorylation. This technology is separation-based, allowing direct detection of fluorescently labeled substrates and products. Separations are controlled by a combination of vacuum pressure and electric field strength optimized for each peptide substrate. […] Compounds were added to a 384-well plate. […] Enzyme concentrations and incubation times were optimized for each new enzyme preps and were modified slightly over time to ensure 20% to 30% phosphorylation. […] The assay plates were placed on a Caliper Life Science LC3000 instrument, and each well was sampled using appropriate separation conditions to measure the unphosphorylated and phosphorylated peptide. The data was collected using the HTS Well Analyzer software from Caliper Life Sciences. […] The percent effect at each compound concentration was calculated based on the positive and negative control well contained within each assay plate (Equation 2). […] The percent effect was plotted against the compound concentration compound. […] Where max is the maximum asymptote (complete inhibition), min is the minimum asymptote (no inhibition) and s is the slope factor.

[3] = molecular target: JAK2 (Homo sapiens (Human), UniProt O60674); assay: JAK Caliper enzyme assay at 1 mM ATP (JAK2)
Chain of JAK2 (O60674 849-1124): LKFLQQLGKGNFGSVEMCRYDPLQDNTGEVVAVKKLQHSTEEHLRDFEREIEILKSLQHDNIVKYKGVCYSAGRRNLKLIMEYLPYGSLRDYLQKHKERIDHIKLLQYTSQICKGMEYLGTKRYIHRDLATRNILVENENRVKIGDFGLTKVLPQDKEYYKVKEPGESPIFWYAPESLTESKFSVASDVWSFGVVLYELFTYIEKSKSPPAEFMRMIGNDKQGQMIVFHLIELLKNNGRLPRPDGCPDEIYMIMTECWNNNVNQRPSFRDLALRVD
Method: as §1, §2, §3, §4, §5, §6

[4] = molecular target: JAK3 (Homo sapiens (Human), UniProt P52333); assay: JAK Caliper enzyme assay at 1 mM ATP (JAK3)
Chain of JAK3 (P52333 822-1111): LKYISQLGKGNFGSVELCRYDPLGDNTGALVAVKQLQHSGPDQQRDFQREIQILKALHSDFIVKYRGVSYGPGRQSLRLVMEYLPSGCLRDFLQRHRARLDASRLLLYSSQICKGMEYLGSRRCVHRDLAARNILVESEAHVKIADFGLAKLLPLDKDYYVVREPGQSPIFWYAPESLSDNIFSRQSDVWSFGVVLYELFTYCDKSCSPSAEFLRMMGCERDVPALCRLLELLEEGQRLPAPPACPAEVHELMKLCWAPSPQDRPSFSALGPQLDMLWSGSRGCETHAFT
Method: as §1, §2, §3, §4, §5, §6

Chain of TYK2 (P29597 897-1176): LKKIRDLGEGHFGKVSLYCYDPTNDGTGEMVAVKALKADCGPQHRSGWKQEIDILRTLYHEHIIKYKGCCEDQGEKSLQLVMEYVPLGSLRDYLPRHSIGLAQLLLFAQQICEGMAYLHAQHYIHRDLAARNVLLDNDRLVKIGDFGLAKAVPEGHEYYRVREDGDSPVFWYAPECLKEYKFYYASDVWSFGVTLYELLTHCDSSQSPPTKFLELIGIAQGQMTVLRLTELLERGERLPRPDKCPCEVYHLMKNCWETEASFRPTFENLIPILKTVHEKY

N#CCC1(n2cc(-c3nc(-c4cc(CO)[nH]n4)cn4nccc34)cn2)CN(CC2CC2)C1 [Example 2, 2-(1-(Cyclopropylmethyl)-3-(4-(6-(5-(hydroxymethyl)-1H-pyrazol-3-yl)pyrazolo[1,5-a]pyrazin-4-yl)-1H-pyrazol-1-yl)azetidin-3-yl)acetonitrile]
IC50 [1]: 62 nM
IC50 [2]: 1060 nM
IC50 [3]: 299 nM
IC50 [4]: > 10000 nM

CCN1CC(CC#N)(n2cc(-c3nc(-c4cc(CO)[nH]n4)cn4nccc34)cn2)C1 [Example 3, 2-(1-Ethyl-3-(4-(6-(5-(hydroxymethyl)-1H-pyrazol-3-yl)pyrazolo[1,5-a]pyrazin-4-yl)-1H-pyrazol-1-yl)azetidin-3-yl)acetonitrile]
IC50 [1]: 64 nM
IC50 [2]: 2290 nM

Cn1cc(-c2cn3nccc3c(-c3cnn(C4(CC#N)CCC4)c3)n2)cn1 [Example 4, 2-(1-(4-(6-(1-Methyl-1H-pyrazol-4-yl)pyrazolo[1,5-a]pyrazin-4-yl)-1H-pyrazol-1-yl)cyclobutyl)acetonitrile]
IC50 [1]: 55 nM
IC50 [2]: 1340 nM
IC50 [3]: 141 nM
IC50 [4]: > 10000 nM

CO[C@H]1C[C@](CC#N)(n2cc(-c3nc(-c4cc(NC(C)=O)[nH]n4)cn4nccc34)cn2)C1 [Example 5, N-(3-(4-(1-((1r,3s)-1-(Cyanomethyl)-3-methoxycyclobutyl)-1H-pyrazol-4-yl)pyrazolo[1,5-a]pyrazin-6-yl)-1H-pyrazol-5-yl)acetamide]
IC50 [1]: 35 nM
IC50 [2]: 1920 nM
IC50 [4]: > 10000 nM

CNC(=O)c1cc(-c2cn3nccc3c(-c3cnn([C@]4(CC#N)C[C@@H](OC)C4)c3)n2)[nH]n1 [Example 6, 5-(4-(1-((1r,3s)-1-(Cyanomethyl)-3-methoxycyclobutyl)-1H-pyrazol-4-yl)pyrazolo[1,5-a]pyrazin-6-yl)-N-methyl-1H-pyrazole-3-carboxamide]
IC50 [3]: 500 nM
IC50 [4]: > 10000 nM

Cn1cc(-c2cn3nccc3c(-c3cnn(C4(CC#N)CN(S(C)(=O)=O)C4)c3)n2)cn1 [Example 8, 2-(3-(4-(6-(1-Methyl-1H-pyrazol-4-yl)pyrazolo[1,5-a]pyrazin-4-yl)-1H-pyrazol-1-yl)-1-(methylsulfonyl)azetidin-3-yl)acetonitrile]
IC50 [1]: 11 nM
IC50 [2]: 265 nM
IC50 [4]: > 9280 nM

Cn1cc(-c2cn3nccc3c(-c3cnn(C4(CC#N)CN(S(=O)(=O)C5CC5)C4)c3)n2)cn1 [Example 9, 2-(1-(Cyclopropylsulfonyl)-3-(4-(6-(1-methyl-1H-pyrazol-4-yl)pyrazolo[1,5-a]pyrazin-4-yl)-1H-pyrazol-1-yl)azetidin-3-yl)acetonitrile]
IC50 [1]: 8 nM
IC50 [2]: 185 nM
IC50 [3]: 49 nM
IC50 [4]: > 10000 nM

CCC(=O)N1CC(CC#N)(n2cc(-c3nc(-c4cnn(C)c4)cn4nccc34)cn2)C1 [Example 10, 2-(3-(4-(6-(1-Methyl-1H-pyrazol-4-yl)pyrazolo[1,5-a]pyrazin-4-yl)-1H-pyrazol-1-yl)-1-propionylazetidin-3-yl)acetonitrile]
IC50 [1]: 580 nM
IC50 [2]: 5710 nM
IC50 [3]: 1600 nM
IC50 [4]: > 10000 nM

Cn1cc(-c2cn3nccc3c(-c3cnn([C@]4(CC#N)C[C@H](CC#N)C4)c3)n2)cn1 [Example 11, 2,2′-((1s,3s)-1-(4-(6-(1-Methyl-1H-pyrazol-4-yl)pyrazolo[1,5-a]pyrazin-4-yl)-1H-pyrazol-1-yl)cyclobutane-1,3-diyl)diacetonitrile]
IC50 [1]: 8 nM
IC50 [2]: 273 nM
IC50 [3]: 38 nM
IC50 [4]: > 6170 nM

Cn1cc(-c2cn3nccc3c(-c3cnn([C@]4(CC#N)C[C@H](O)C4)c3)n2)cn1 [Example 13, 2-((1s,3r)-3-Hydroxy-1-(4-(6-(1-methyl-1H-pyrazol-4-yl)pyrazolo[1,5-a]pyrazin-4-yl)-1H-pyrazol-1-yl)cyclobutyl)acetonitrile]
IC50 [1]: 149 nM
IC50 [2]: 3230 nM
IC50 [4]: > 10000 nM

Cn1cc(-c2cn3nccc3c(-c3cnn([C@]4(CC#N)C[C@@H](O)C4)c3)n2)cn1 [Example 14, 2-((1r,3s)-3-Hydroxy-1-(4-(6-(1-methyl-1H-pyrazol-4-yl)pyrazolo[1,5-a]pyrazin-4-yl)-1H-pyrazol-1-yl)cyclobutyl)acetonitrile]
IC50 [1]: 81 nM
IC50 [2]: 1060 nM
IC50 [4]: > 10000 nM

CO[C@H]1C[C@](CC#N)(n2cc(-c3nc(-c4cnn(C)c4)cn4nccc34)cn2)C1 [Example 15, 2-((1r,3s)-3-Methoxy-1-(4-(6-(1-methyl-1H-pyrazol-4-yl)pyrazolo[1,5-a]pyrazin-4-yl)-1H-pyrazol-1-yl)cyclobutyl)acetonitrile]
IC50 [2]: 1500 nM
IC50 [3]: 228 nM
IC50 [4]: > 9120 nM

CO[C@H]1C[C@@](CC#N)(n2cc(-c3nc(-c4cnn(C)c4)cn4nccc34)cn2)C1 [Example 16, 2-((1s,3r)-3-Methoxy-1-(4-(6-(1-methyl-1H-pyrazol-4-yl)pyrazolo[1,5-a]pyrazin-4-yl)-1H-pyrazol-1-yl)cyclobutyl)acetonitrile]
IC50 [2]: 664 nM
IC50 [3]: 99 nM
IC50 [4]: 10000 nM

C[C@H]1N(CC(F)(F)F)C[C@]1(CC#N)n1cc(-c2nc(-c3cnn(C)c3)cn3nccc23)cn1 [Example 17, 2-((2R,3S)-2-Methyl-3-(4-(6-(1-methyl-1H-pyrazol-4-yl)pyrazolo[1,5-a]pyrazin-4-yl)-1H-pyrazol-1-yl)-1-(2,2,2-trifluoroethyl)azetidin-3-yl)acetonitrile]
IC50 [1]: 35 nM
IC50 [2]: 1730 nM
IC50 [3]: 205 nM
IC50 [4]: 10000 nM

Cn1cc(-c2cn3nccc3c(-c3cnn([C@]4(CC#N)C[C@@H](c5ccn[nH]5)C4)c3)n2)cn1 [Example 18, 2-((1r,3r)-1-(4-(6-(1-Methyl-1H-pyrazol-4-yl)pyrazolo[1,5-a]pyrazin-4-yl)-1H-pyrazol-1-yl)-3-(1H-pyrazol-5-yl)cyclobutyl)acetonitrile]
IC50 [1]: 47 nM
IC50 [2]: 1080 nM
IC50 [3]: 206 nM
IC50 [4]: 10000 nM

Cc1nn([C@]2(CC#N)C[C@@H](C#N)C2)cc1-c1nc(-c2cnn(C)c2)cn2nccc12 [Example 21, (1r,3r)-3-(Cyanomethyl)-3-(3-methyl-4-(6-(1-methyl-1H-pyrazol-4-yl)pyrazolo[1,5-a]pyrazin-4-yl)-1H-pyrazol-1-yl)cyclobutane-1-carbonitrile]
IC50 [1]: 34 nM
IC50 [2]: 1290 nM
IC50 [3]: 109 nM
IC50 [4]: > 10000 nM

Cn1cc(-c2cn3nccc3c(-c3cnn([C@]4(CC#N)C[C@@H](C#N)C4)c3)n2)c(CO)n1 [Example 22, (1r,3r)-3-(Cyanomethyl)-3-(4-(6-(3-(hydroxymethyl)-1-methyl-1H-pyrazol-4-yl)pyrazolo[1,5-a]pyrazin-4-yl)-1H-pyrazol-1-yl)cyclobutane-1-carbonitrile]
IC50 [1]: 30 nM
IC50 [2]: 2540 nM
IC50 [3]: 127 nM
IC50 [4]: > 10000 nM

CO[C@H]1C[C@](CC#N)(n2cc(-c3nc(-c4cc(N)n(C)n4)cn4nccc34)cn2)C1 [Example 24, 2-((1r,3s)-1-(4-(6-(5-Amino-1-methyl-1H-pyrazol-3-yl)pyrazolo[1,5-a]pyrazin-4-yl)-1H-pyrazol-1-yl)-3-methoxycyclobutyl)acetonitrile]
IC50 [1]: 25 nM
IC50 [2]: 3550 nM
IC50 [3]: 432 nM
IC50 [4]: > 10000 nM
